Key:
[1] = Toxicity in Mus musculus ddY (mouse) assessed as mortality at 4 mg/kg, ip after 2 days; type: organism-based; parameters: dose 4 mg/kg, route intraperitoneal; settings: in vivo
[2] = system: Brassica rapa subsp. oleifera; test: Growth inhibition of Brassica rapa subsp. oleifera assessed as chlorophyll a level at 5 x 10^-5 M after 7 days; type: functional; parameters: scale not given: the % may be the effect or the level left
[3] = system: Echinochloa esculenta; test: Growth inhibition of Echinochloa esculenta assessed as root growth at 5 x 10^-5 M after 7 days; type: functional
[4] = Toxicity in Mus musculus ddY (mouse) assessed as mortality at 5 mg/kg, ip after 3 days; type: organism-based; parameters: dose 5 mg/kg, route intraperitoneal; settings: in vivo
[5] = system: Brassica rapa subsp. oleifera; test: Growth inhibition of Brassica rapa subsp. oleifera assessed as root growth at 5 x 10^-5 M after 7 days; type: functional
[6] = system: Echinochloa esculenta; test: Growth inhibition of Echinochloa esculenta assessed as root growth at 3 x 10^-5 M after 7 days; type: functional
[7] = Toxicity in ip dosed Mus musculus ddY (mouse) assessed as mortality after 1 to 7 days; type: organism-based; settings: in vivo
[8] = Toxicity in Mus musculus ddY (mouse) assessed as mortality at 4 mg/kg, ip after 4 days; type: organism-based; parameters: dose 4 mg/kg, route intraperitoneal; settings: in vivo
[9] = Toxicity in Mus musculus ddY (mouse) assessed as mortality at 6 mg/kg, ip after 4 days; type: organism-based; parameters: dose 6 mg/kg, route intraperitoneal; settings: in vivo
[10] = system: Brassica rapa subsp. oleifera; test: Growth inhibition of Brassica rapa subsp. oleifera assessed as root growth at 3 x 10^-5 M after 7 days; type: functional
[11] = Toxicity in Mus musculus ddY (mouse) assessed as mortality at 8 mg/kg, ip after 5 days; type: organism-based; parameters: dose 8 mg/kg, route intraperitoneal; settings: in vivo
[12] = system: Daucus carota; test: Growth inhibition of Daucus carota (carrot) assessed as root growth at 1 x 10^-4 M after 7 days; type: functional
[13] = system: Brassica rapa subsp. oleifera; test: Growth inhibition of Brassica rapa subsp. oleifera assessed as root growth at 1 x 10^-4 M after 7 days; type: functional
[14] = Toxicity in Mus musculus ddY (mouse) assessed as mortality at 5 mg/kg, ip after 4 days; type: organism-based; parameters: dose 5 mg/kg, route intraperitoneal; settings: in vivo
[15] = system: Brassica rapa subsp. oleifera; test: Growth inhibition of Brassica rapa subsp. oleifera assessed as root growth at 3 x 10^-4 M after 7 days; type: functional
[16] = Toxicity in Mus musculus ddY (mouse) assessed as mortality at 8 mg/kg, ip after 1 day; type: organism-based; parameters: dose 8 mg/kg, route intraperitoneal; settings: in vivo
[17] = Toxicity in Mus musculus ddY (mouse) assessed as mortality at 4 mg/kg, ip after 5 days; type: organism-based; parameters: dose 4 mg/kg, route intraperitoneal; settings: in vivo
[18] = Toxicity in Mus musculus ddY (mouse) assessed as mortality at 4 mg/kg, ip after 3 days; type: organism-based; parameters: dose 4 mg/kg, route intraperitoneal; settings: in vivo
[19] = system: Daucus carota; test: Growth inhibition of Daucus carota (carrot) assessed as root growth at 3 x 10^-5 M after 7 days; type: functional
[20] = Toxicity in Mus musculus ddY (mouse) assessed as mortality at 5 mg/kg, ip after 2 days; type: organism-based; parameters: dose 5 mg/kg, route intraperitoneal; settings: in vivo
[21] = system: Brassica rapa subsp. oleifera; test: Growth inhibition of Brassica rapa subsp. oleifera assessed as total chlorophyll level at 5 x 10^-5 M after 7 days; type: functional; parameters: scale not given: the % may be the effect or the level left
[22] = system: Sesamum indicum; test: Growth inhibition of Sesamum indicum (sesame) assessed as root growth at 1 x 10^-5 M after 7 days; type: functional
[23] = system: Brassica rapa subsp. oleifera; test: Growth inhibition of Brassica rapa subsp. oleifera assessed as chlorophyll a level at 1 x 10^-4 M after 7 days; type: functional; parameters: scale not given: the % may be the effect or the level left
[24] = Toxicity in Mus musculus ddY (mouse) assessed as mortality at 6 mg/kg, ip after 7 days; type: organism-based; parameters: dose 6 mg/kg, route intraperitoneal; settings: in vivo
[25] = Toxicity in Mus musculus ddY (mouse) assessed as mortality at 6 mg/kg, ip after 2 days; type: organism-based; parameters: dose 6 mg/kg, route intraperitoneal; settings: in vivo
[26] = Toxicity in Mus musculus ddY (mouse) assessed as mortality at 4 mg/kg, ip after 6 days; type: organism-based; parameters: dose 4 mg/kg, route intraperitoneal; settings: in vivo
[27] = Toxicity in Mus musculus ddY (mouse) assessed as mortality at 7 mg/kg, ip after 5 days; type: organism-based; parameters: dose 7 mg/kg, route intraperitoneal; settings: in vivo

NN1C(=O)CSC1=S [AMINORHODANINE]
mortality at 48 h [1]: 20% | Activity [2]: 9.22% | Activity [3]: 11.2 mm | mortality at 72 h [4]: 60% | Root length [5]: 26.8 mm | Activity [6]: 16 mm | LD50 [7]: 5.07 mg/kg | mortality at 96 h [8]: 20% | mortality at 96 h [9]: 60% | Root length [10]: 30.8 mm | mortality at 120 h [11]: 100% | Activity [12]: 2.4 mm | Activity [13]: 14.1 mm | mortality at 96 h [14]: 60% | Activity [15]: 3.5 mm | mortality at 24 h [16]: 100% | mortality at 120 h [17]: 20% | mortality at 72 h [18]: 20% | Activity [19]: 11.2 mm | mortality at 48 h [20]: 60% | Activity [21]: 13.57% | Activity [22]: 6.8 mm | Activity [23]: 8.05% | mortality at 168 h [24]: 60% | mortality at 48 h [25]: 60% | mortality at 144 h [26]: 20% | mortality at 120 h [27]: 80%
